In patent US9023865B2, “Compounds that are ERK inhibitors” (Merck Sharp & Dohme Corp., priority 2011, dated 2015) one finds IC50 data, which are given here for 64 molecules.

Read-outs that look alike come from different tables or passages of the source.

The target in this test is Active Human ERK2 (hERK2) (Homo sapiens (Human), UniProt P28482). Description: Active Human ERK2 (hERK2) Activity Assay (IMAP-FP). It counts as biochemical. The method in brief: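 Reaction contains 0.5 nM activated hERK2, 900 nM unlabeled plus 80 nM labeled peptide and 30 μM ATP, run 60 min. Quenched with IMAP binding beads in buffer with 24 mM NaCl; fluorescence polarization read after 60 min binding equilibration.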
Chain of Active Human ERK2 (hERK2) (P28482 whole entry): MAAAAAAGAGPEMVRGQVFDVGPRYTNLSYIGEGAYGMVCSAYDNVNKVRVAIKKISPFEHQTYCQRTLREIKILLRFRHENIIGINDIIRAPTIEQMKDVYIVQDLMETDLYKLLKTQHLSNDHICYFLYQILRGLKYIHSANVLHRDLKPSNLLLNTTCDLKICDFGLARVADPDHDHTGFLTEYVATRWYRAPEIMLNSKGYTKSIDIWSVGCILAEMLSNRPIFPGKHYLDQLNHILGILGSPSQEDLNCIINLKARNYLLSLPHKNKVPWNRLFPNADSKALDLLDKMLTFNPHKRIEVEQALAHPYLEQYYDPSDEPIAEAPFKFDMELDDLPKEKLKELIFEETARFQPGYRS

[1] abbreviates: phosphorylated active hERK2, 30 μM ATP, average, read-out: ERK 2 Human average IC50.
The mark [2] stands for this setting: read-out: AERK2 IC50 (Active human ERK2 Activity Assay).

Usually IC50 stands for the concentration that gives 50% inhibition. Consider `C[C@@H](NC(=O)Nc1cc2[nH]nc(C(=O)N3CC(=O)N(C)C3)c2cn1)c1ccccc1` [Example 120], for which, under setting [1], the IC50 is 60.4 nM. `Cc1cc(-c2n[nH]c3cc(NC(=O)NCC4CNC(=O)O4)ncc23)ccn1` (stereo not shown) [Example 466]: the IC50 under setting [1] was found to be 2.81 nM.

Take `Cc1cc(-c2n[nH]c3cc(NC(=O)NCc4c[nH]nn4)ncc23)ccn1` [Example 431]: under setting [1], the IC50 turned out to be 2.52 nM. As to `Cc1cc(-c2n[nH]c3cc(NC(=O)N[C@@H](CN(C)C)c4ccccc4)ncc23)ccn1` [Example 481], the IC50 under setting [1] was found to be 10.8 nM.

For `Cc1cc(-c2n[nH]c3cc(NC(=O)N[C@H](C)c4ccc(F)c(Cl)c4)ncc23)ccn1` [Example 69, 1-[(1R)-1-(3-chloro-4-fluorophenyl)ethyl]-3-[3-(2-methylpyridin-4-yl)-1H-pyrazolo[4,3-c]pyridin-6-yl]urea], the IC50 is, setting by setting: under setting [1], 0.432 nM; under setting [2], 0.2 to 1.7 nM. As to `Cc1cc(-c2n[nH]c3cc(NC(=O)NC4CC(C)(C)Oc5ccccc54)ncc23)ccn1` (stereo not shown) [Example 271], under setting [1], the IC50 was 5.93 nM. Take `Cc1cc(-c2n[nH]c3cc(NC(=O)NCc4ccc(F)cn4)ncc23)ccn1` [Example 516]: under setting [1], the half-maximal inhibitory concentration (IC50) is 2.35 nM. Turning to `C[C@@H](NC(=O)Nc1cc2[nH]nc(-c3ccc(C#N)cc3)c2cn1)c1cccc(Cl)c1` [Example 84, 1-[(1R)-1-(3-chlorophenyl)ethyl]-3-[3-(4-cyanophenyl)-1H-pyrazolo[4,3-c]pyridin-6-yl]urea], the IC50 under setting [1] was 6.11 nM. The same measure, in the same setting: to `COc1ccc(-c2n[nH]c3cc(NC(=O)NCc4ccc(F)cc4)ncc23)cc1` [Example 677] belongs 3.67 nM. As for `C/C=C/c1n[nH]c2cc(NC(=O)N[C@H](C)c3ccccc3)ncc12` [Example 67, 1-[(1R)-1-phenylethyl]-3-{3-[(1E)-prop-1-en-1-yl]-1H-pyrazolo[4,3-c]pyridin-6-yl}urea], the concentration for half-maximal inhibition (IC50) under setting [1] is 0.428 nM and the concentration for half-maximal inhibition (IC50) under setting [2] is 0.2 to 1.7 nM. With `Cc1cc(-c2n[nH]c3cc(NC(=O)N[C@@H](c4ccc(F)cc4)C(F)(F)F)ncc23)ccn1` [Example 280], the IC50 under setting [1] came to 9.83 nM. `Cc1cc(-c2n[nH]c3cc(NC(=O)NC4CCOc5ccccc54)ncc23)ccn1` (stereo not shown) [Example 532]: the concentration for half-maximal inhibition (IC50) under setting [1] was determined as 3.52 nM.

Consider `Cc1cc(-c2n[nH]c3cc(NC(=O)NC[C@H]4COCCO4)ncc23)ccn1` [Example 549], for which the concentration for half-maximal inhibition (IC50) under setting [1] was 2.62 nM. For `COC[C@@H](NC(=O)Nc1cc2[nH]nc(C3CC3)c2cn1)c1cc(F)ccn1` [Example 168], the concentration for half-maximal inhibition (IC50) under setting [1] is 117 nM.

Turning to `CCCCNC(=O)Nc1cc2[nH]nc(C3CC3)c2cn1` [Example 156], the IC50 under setting [1] came to 42.2 nM. Turning to `C[C@@H](NC(=O)Nc1cc2[nH]nc(-c3ccc(F)cc3)c2cn1)C1CCCCC1` [Example 594], under setting [1], the IC50 worked out at 3.78 nM. For the molecule `Cc1cc(-c2n[nH]c3cc(NC(=O)NC4CCNC4)ncc23)ccn1` (stereo not shown) [Example 579], under setting [1], the IC50 is 10.6 nM. On the same count and under the same terms, to `COCCNC(=O)Nc1cc2[nH]nc(-c3ccc(OC(C)C)nc3)c2cn1` [Example 630] belongs 2.12 nM; to `COC[C@@H](NC(=O)Nc1cc2[nH]nc(-c3ccc(N4CCOCC4)nc3)c2cn1)c1ccc(F)cc1` [Example 297], 1.05 nM. The same measure, in the same setting: to `CC[C@H](NC(=O)Nc1cc2[nH]nc(-c3ccnc(C)c3)c2cn1)c1ccccn1` [Example 217] belongs 41.6 nM.

`Cc1cc(-c2n[nH]c3cc(NC(=O)N[C@H]4CN(C)[C@H](C(F)F)[C@@H]4c4ccccc4)ncc23)ccn1` [Example 569]: the half-maximal inhibitory concentration (IC50) under setting [1] came to 1.48 nM. Consider `Cc1cc(-c2n[nH]c3c(C)c(NC(=O)N[C@H](C)c4ccccc4)ncc23)ccn1` [Example 174, (R)-1-(7-Methyl-3-(2-methylpyridin-4-yl)-1H-pyrazolo[4,3-c]pyridin-6-yl)-3-(1-phenylethyl)urea], for which the IC50 under setting [1] is 1.58 nM.

Consider `CCOCCNC(=O)Nc1cc2[nH]nc(-c3ccnc(C)c3)c2cn1` [Example 617], for which the IC50 under setting [1] stood at 1.07 nM. Regarding `Cc1cc(-c2n[nH]c3cc(NC(=O)N[C@@H]4CN(C)C[C@H]4c4ccccc4)ncc23)ccn1` [Example 582], under setting [1], the IC50 is 0.234 nM. Take `C[C@@H](NC(=O)Nc1cc2[nH]nc(C(=O)NCC(O)C(F)F)c2cn1)c1ccccc1` (stereo partly shown) [Example 123]: the IC50 under setting [1] was found to be 4.49 nM. Still for that read-out and setting: as for `Cc1ccc(-c2n[nH]c3cc(NC(=O)N[C@H](C)c4ccc(F)cc4)ncc23)s1` [Example 248], the figure is 11.7 nM. In the case of `Cc1cc(-c2n[nH]c3cc(NC(=O)N[C@@H]4CNC[C@@H]4c4ccccc4)ncc23)ccn1` [Example 180], the IC50 under setting [1] was determined as 4.58 nM. For `Cc1cc(-c2n[nH]c3cc(NC(=O)N[C@@H]4CCS(=O)(=O)c5ccccc54)ncc23)ccn1` [Example 275], the IC50 under setting [1] is 1.61 nM. On to `Cc1cc(-c2n[nH]c3cc(NC(=O)Nc4noc5ccccc45)ncc23)ccn1` [Example 337], for which the IC50 under setting [1] was 1.4 nM. For the molecule `COCC(O)CNC(=O)c1n[nH]c2cc(NC(=O)N[C@H](C)c3ccccc3)ncc12` (stereo partly shown) [Example 133], the concentration for half-maximal inhibition (IC50) under setting [1] is 11 nM. Turning to `CC[C@H](CO)NC(=O)Nc1cc2[nH]nc(-c3ccnc(C)c3)c2cn1` [Example 204], under setting [1], the IC50 came out at 24.1 nM. As for `COC[C@@H](NC(=O)Nc1cc2[nH]nc(-c3ccc(C#N)nc3)c2cn1)c1ccc(F)cc1` [Example 303], the IC50 under setting [1] came out at 3.21 nM.

Consider `Cc1cc(-c2n[nH]c3cc(NC(=O)NCc4cccnn4)ncc23)ccn1` [Example 446], for which the 50% inhibitory concentration (IC50) under setting [1] is 3.3 nM. Consider `C[C@@H](NC(=O)Nc1cc2[nH]nc(C(=O)NCC(F)(F)CN3CCOCC3)c2cn1)c1ccccc1` [Example 125], for which the IC50 under setting [1] was 6.53 nM.

In the case of `CNC(=O)[C@H]1CC1c1n[nH]c2cc(NC(=O)N[C@H](COC)c3ccccc3)ncc12` (stereo partly shown) [Example 171], under setting [1], the IC50 came out at 0.97 nM. Take `C[C@@H](NC(=O)Nc1cc2[nH]nc(C(=O)NCC3CCN(C4CC4)C3)c2cn1)c1ccccc1` (stereo partly shown) [Example 129]: the IC50 under setting [1] was determined as 13.6 nM. Take `Cc1cc(-c2n[nH]c3cc(NC(=O)NCc4nncs4)ncc23)ccn1` [Example 438]: the concentration for half-maximal inhibition (IC50) under setting [1] is 6.6 nM. For `Cc1cc(-c2n[nH]c3cc(NC(=O)N[C@H]4CCCC(F)(F)[C@@H]4O)ncc23)ccn1` [Example 383], the IC50 under setting [1] was 13.3 nM. With `Cc1cc(-c2n[nH]c3cc(NC(=O)NCc4nccc5ccccc45)ncc23)ccn1` [Example 390], the IC50 under setting [1] was found to be 2.76 nM. As to `Cc1cc(-c2n[nH]c3cc(NC(=O)NC4CNC4)ncc23)ccn1` [Example 39, 1-azetidin-3-yl-3-[3-(2-methylpyridin-4-yl)-1H-pyrazolo[4,3-c]pyridin-6-yl]urea], under setting [1], the 50% inhibitory concentration (IC50) worked out at 60.3 nM. `Cc1cc(-c2n[nH]c3cc(NC(=O)NC4(c5ccccn5)CCC4)ncc23)ccn1` [Example 355]: the concentration for half-maximal inhibition (IC50) under setting [1] is 1.54 nM. `Cc1cc(-c2n[nH]c3cc(NC(=O)N[C@@H]4c5ccccc5C[C@H]4N(C)C)ncc23)ccn1` [Example 490]: the 50% inhibitory concentration (IC50) under setting [1] turned out to be 11.3 nM.

`CC1=NOC(CNC(=O)Nc2cc3[nH]nc(-c4ccnc(C)c4)c3cn2)C1` (stereo not shown) [Example 191]: the concentration for half-maximal inhibition (IC50) under setting [1] turned out to be 17.6 nM. Turning to `CN1C[C@@H](NC(=O)Nc2cc3[nH]nc(-c4ccc(F)cc4)c3cn2)[C@H](c2ccccc2)C12COC2` [Example 557], the IC50 under setting [1] came out at 1.86 nM. Consider `Cc1cc(-c2n[nH]c3cc(NC(=O)N(C)C4CCCCC4)ncc23)ccn1` [Example 576], for which the half-inhibitory concentration (IC50) under setting [1] came out at 2450 nM. On the same count and under the same terms, to `Cc1cc(-c2n[nH]c3cc(NC(=O)NC4COc5ccccc5C4)ncc23)ccn1` (stereo not shown) [Example 467] belongs 1.25 nM. For `Cc1cc(-c2n[nH]c3cc(NC(=O)N[C@H](C)C4CCC4)ncc23)ccn1` [Example 595], the IC50 under setting [1] was determined as 3.46 nM. Turning to `CCOc1ncccc1CNC(=O)Nc1cc2[nH]nc(-c3ccnc(C)c3)c2cn1` [Example 526], under setting [1], the IC50 was found to be 0.546 nM. Turning to `C[C@@H](NC(=O)Nc1cc2[nH]nc(-c3cnc(-n4cccn4)nc3)c2cn1)c1ccccc1` [Example 291], under setting [1], the half-maximal inhibitory concentration (IC50) came to 4.44 nM. In the case of `Cc1cc(-c2n[nH]c3cc(NC(=O)NCc4ccc5[nH]cnc5c4)ncc23)ccn1` [Example 368], the IC50 under setting [1] came out at 2.79 nM. The same measure, in the same setting: as for `Cc1cc(-c2n[nH]c3cc(NC(=O)NCC4CCO4)ncc23)ccn1` (stereo not shown) [Example 484], the figure is 376 nM. In the case of `Cc1cc(-c2n[nH]c3cc(NC(=O)NCc4scnc4C)ncc23)ccn1` [Example 418], the concentration for half-maximal inhibition (IC50) under setting [1] amounted to 2.75 nM. For the molecule `CC(O)c1n[nH]c2cc(NC(=O)N[C@H](C)c3ccccc3)ncc12` (stereo partly shown) [Example 618], under setting [1], the IC50 stood at 22.8 nM. For the molecule `Cc1cc(-c2n[nH]c3cc(NC(=O)NC4CCCOc5ccccc54)ncc23)ccn1` (stereo not shown) [Example 274], under setting [1], the half-maximal inhibitory concentration (IC50) is 0.494 nM. For `Cc1cc(-c2n[nH]c3cc(NC(=O)NC4c5ccccc5CC4O)ncc23)ccn1` (stereo not shown) [Example 332], the IC50 under setting [1] was found to be 1.34 nM. For the molecule `Cc1cc(-c2n[nH]c3cc(NC(=O)NCC(c4ccccn4)N4CCOCC4)ncc23)ccn1` (stereo not shown) [Example 384], the IC50 under setting [1] stood at 24.7 nM. For `CCOC[C@@H](NC(=O)Nc1cc2[nH]nc(-c3cc(C)on3)c2cn1)c1ccccc1` [Example 698], the half-maximal inhibitory concentration (IC50) under setting [1] was determined as 6.78 nM.

For `Cc1cc(-c2n[nH]c3cc(NC(=O)NCC4(c5ccc(F)cc5)CC4)ncc23)ccn1` [Example 269], the IC50 under setting [1] amounted to 2.81 nM.

With `C[C@@H](NC(=O)Nc1cc2[nH]nc(-c3cnn(C)c3)c2cn1)c1ccc(F)c(Cl)c1` [Example 72, 1-[(1R)-1-(3-chloro-4-fluorophenyl)ethyl]-3-[3-(1-methyl-1H-pyrazol-4-yl)-1H-pyrazolo[4,3-c]pyridin-6-yl]urea], the IC50 is, setting by setting: under setting [1], 0.709 nM; under setting [2], 0.2 to 1.7 nM.

Turning to `CSC1CN(C(=O)c2n[nH]c3cc(NC(=O)N[C@H](C)c4ccccc4)ncc23)C1` [Example 118], the IC50 under setting [1] was found to be 501 nM. Consider `C[C@@H](NC(=O)Nc1cc2[nH]nc(-c3cnn(CC(C)(C)O)c3)c2cn1)c1ccccc1` [Example 639], for which the half-inhibitory concentration (IC50) under setting [1] is 0.535 nM.

Consider `Cc1cc(-c2n[nH]c3cc(NC(=O)NCC4CCN(Cc5ccccc5)C4)ncc23)ccn1` (stereo not shown) [Example 410], for which the IC50 under setting [1] turned out to be 2.65 nM. Regarding `Cc1cc(-c2n[nH]c3cc(NC(=O)NCc4cn5cccc(C)c5n4)ncc23)ccn1` [Example 393], under setting [1], the concentration for half-maximal inhibition (IC50) is 13.8 nM. `Cc1cc(-c2n[nH]c3cc(NC(=O)NCC4CN(C)CCO4)ncc23)ccn1` (stereo not shown) [Example 198]: the concentration for half-maximal inhibition (IC50) under setting [1] amounted to 5.95 nM.
